Measurements as given in PubChem BioAssay AID1645866 (Buhrlage Lab, Dana-Farber Cancer Institute and Novartis …, 2021).
Activity calls are given as the source filed them.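 How the source made its calls: active means in confirmatory dose-response testing, peak deubiquitinase inhibition of 30% or more; inactive means the rest.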

Each compound was assayed against Ubiquitin carboxyl-terminal hydrolase 28 (Homo sapiens) (UniProt Q96RU2) (assay: Ubiquitin-specific peptidase 28 DUB inhibitors, biochemical concentration-dependence assay, validation of primary screening hits (AID 1645866)). Details: purified USP28, ubiquitin-rhodamine fluorescence, 30 min.
Sequence of Ubiquitin carboxyl-terminal hydrolase 28 (Homo sapiens) (Q96RU2 whole entry, looked up): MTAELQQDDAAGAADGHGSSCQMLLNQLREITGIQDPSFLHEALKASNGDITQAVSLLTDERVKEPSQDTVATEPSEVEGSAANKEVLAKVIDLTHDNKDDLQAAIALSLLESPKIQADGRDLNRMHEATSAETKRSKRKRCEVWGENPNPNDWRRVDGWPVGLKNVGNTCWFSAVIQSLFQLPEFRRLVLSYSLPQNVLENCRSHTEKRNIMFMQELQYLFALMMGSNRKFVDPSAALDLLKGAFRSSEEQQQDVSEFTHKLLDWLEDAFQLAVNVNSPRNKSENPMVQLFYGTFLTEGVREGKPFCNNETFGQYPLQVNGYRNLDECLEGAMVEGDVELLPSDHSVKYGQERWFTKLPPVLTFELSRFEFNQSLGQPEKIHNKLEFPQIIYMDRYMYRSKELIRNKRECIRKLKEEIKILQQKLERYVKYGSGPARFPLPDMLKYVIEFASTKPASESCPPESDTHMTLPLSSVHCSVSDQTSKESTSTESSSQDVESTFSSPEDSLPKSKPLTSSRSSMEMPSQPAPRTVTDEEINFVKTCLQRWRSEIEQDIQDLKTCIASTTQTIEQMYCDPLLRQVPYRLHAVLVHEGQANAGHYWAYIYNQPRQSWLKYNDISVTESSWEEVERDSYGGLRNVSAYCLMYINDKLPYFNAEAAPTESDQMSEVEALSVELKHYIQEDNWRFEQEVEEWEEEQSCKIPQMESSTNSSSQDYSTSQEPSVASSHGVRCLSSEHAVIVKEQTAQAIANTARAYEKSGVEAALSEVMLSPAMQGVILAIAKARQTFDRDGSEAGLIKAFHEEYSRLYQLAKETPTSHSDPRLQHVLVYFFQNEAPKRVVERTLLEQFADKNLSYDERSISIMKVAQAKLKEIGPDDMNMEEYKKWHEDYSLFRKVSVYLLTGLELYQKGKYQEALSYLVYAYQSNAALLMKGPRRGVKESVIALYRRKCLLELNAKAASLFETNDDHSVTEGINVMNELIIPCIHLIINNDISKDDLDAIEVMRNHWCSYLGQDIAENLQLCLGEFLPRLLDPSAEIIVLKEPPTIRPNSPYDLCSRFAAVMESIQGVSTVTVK

Row | SMILES | IC50
1 | Cc1ccc(NC(=O)C2CCN(c3cncnc3N3CCCC3)CC2)cc1 | 0.456 µM
2 | O=C(Nc1ccc(N2CCOCC2)cc1)c1ccc(-c2ccc(N3CCCC3)nn2)cc1 | > 50 µM (inactive)
3 | c1ccc2c(-c3nc(C4CC4)no3)nnc(NCc3ccncc3)c2c1 | 35.9 µM
4 | Cc1ccn(-c2ccc(NC(=O)C3CCCCC3)cc2)n1 | 22.6 µM
5 | Cc1ccc(-n2c(=O)[nH]c3c(C(N)=O)nc(-c4cccnc4)nc32)cc1 | 6.87 µM
6 | O=c1ccc(-c2noc(-c3ccc4cc[nH]c4c3)n2)c[nH]1 | > 50 µM (inactive)
7 | Cc1ccc(C)c(Cn2nnc3c(=O)[nH]c(C4CCN(S(=O)(=O)c5ccc(S(=O)(=O)NC6CC6)cc5)CC4)nc32)c1 | 9.09 µM
8 | Nc1c(C(=O)NCc2ccc3c(c2)OCO3)nnn1Cc1ccc(Br)cc1F | 5.37 µM
9 | O=c1[nH]c2ccc(S(=O)(=O)Nc3ccc(O)c4ccccc34)cc2[nH]1 | 20 µM
10 | O=C(Nc1ccc2c(c1)N(C(=O)C1CCCC1)CC2)c1c(F)cccc1F | 0.15 µM
11 | O=C(Nc1ccc(SCc2nnc(-c3ccccc3)o2)cc1)C1CC1 | 8.42 µM
12 | O=C(NCc1ccccc1Cl)c1ccc(-c2nnc(-c3ccccc3)o2)cc1 | 2.13 µM
13 | COc1ccc2cc1Oc1cc(ccc1OC)C(O)C13SSC4(C(=O)N1C)C(O)C1=COC=CC(OC2=O)C1N4C3=O (stereo not drawn) | > 50 µM (inactive)
14 | O=C(Nc1cccn(Cc2c(Cl)cccc2Cl)c1=O)c1ccccc1[N+](=O)[O-] | 4.79 µM
15 | Cc1ccccc1NC(=O)CNc1nc(Nc2ccccc2)nc(Nc2ccccc2)n1 | 19.1 µM
16 | CCC(=O)Nc1nc2cc(NC(=O)Nc3cc(C)cc(C)c3)ccc2s1 | 2.97 µM
17 | C=C(NC(=O)C(=C)NC(=O)c1csc(-c2ccc3c(n2)-c2csc(n2)-c2csc(n2)C(C(C)C2CO2)NC(=O)C(Cc2ccc(O)cc2)NC(=O)c2csc(n2)C(C(O)c2ccccc2)NC(=O)c2nc(sc2C)C(CC(N)=O)NC(=O)c2csc-3n2)n1)C(=O)O (stereo not drawn) | 24.9 µM
18 | CCC(C(=O)NCc1ccncc1)N(c1cccc(Cl)c1)S(C)(=O)=O (stereo not drawn) | > 50 µM (inactive)
19 | CN1CCN(C(=O)c2cc(-c3ccn(CC4CC4)n3)n3ccccc23)CC1 | > 50 µM (inactive)
20 | O=C1C=CC(O)C2C1CC13SSC4(CC5C(=O)C=CC(O)C5N4C1=O)C(=O)N23 (stereo not drawn) | > 50 µM (inactive)
21 | CN(C)c1ccc(/C=N/NC(=O)c2ccc(Cl)cc2)cc1 | 16.7 µM
22 | CCCN1CCN(C(=O)c2cc(NC(=O)C3CCC3)cc3nc(C)ccc23)CC1 | > 50 µM (inactive)
23 | Cc1c(CC(=O)Nc2nn[nH]n2)c(=O)oc2cc3c(cc12)CCC1(CCCCC1)O3 | > 50 µM (inactive)
24 | O=C(NC1CCCC1)c1cccc(-c2ccc(N3CCCC3)nc2)c1 | 8.14 µM

Row | SMILES | IC50
25 | Fc1ccc(Cc2nc(-c3ccc4nncn4c3)no2)cc1 | 15.1 µM
26 | CCCCCC(O)c1c(O)cc2c(c1O)C(=O)c1c(O)cc(O)cc1C2=O (stereo not drawn) | > 50 µM (inactive)
27 | CCCc1c(C(=O)O)c(O[C@H]2O[C@H](C)[C@@H](OC)[C@H](OC)[C@@H]2OC)cc2cc3c(c(O)c12)C(=O)c1c(O)cc(O[C@@H]2O[C@@H](C)[C@H](O[C@H]4O[C@H](C)[C@@H](OC)[C@H](OC)[C@@H]4O)[C@@H](OC)[C@H]2O)cc1C3=O | > 50 µM (inactive)
28 | CCC(=O)OCc1cnc(C)c2oc(=O)c(-c3nc(-c4ccccc4)no3)cc12 | > 50 µM (inactive)
29 | CN(C)CCc1cc2c(c3c1ccc1ccccc13)OCO2 | 4.59 µM
30 | CCCCc1nc2sc3c(NCCN4CCOCC4)ncnc3c2c2c1CCC2 | 0.549 µM
31 | O=C(Nc1cccc(Cl)c1)N1CCC(c2cc(-c3ccco3)n[nH]2)CC1 | 4.68 µM
32 | O=C(Cc1c[nH]c2ccccc12)Nc1nc2ccccc2s1 | 21.2 µM
33 | Cc1nn(-c2nc3ccccc3[nH]2)c2c1C(c1cccs1)CC(=O)N2 (stereo not drawn) | > 50 µM (inactive)
34 | O=C1N(Cc2ccc(F)cc2)CCN1c1ccc2c(c1)CCC2 | 40.8 µM
35 | CC1CCN(c2nc(F)c3c(c2F)S(=O)(=O)CCN3Cc2cccnc2)CC1 | > 50 µM (inactive)
36 | CC(C)c1ccc(C(C(=O)NC2CCCCC2)N(C(=O)c2cnccn2)c2cccc(F)c2)cc1 (stereo not drawn) | 23 µM
37 | Cc1nc2sc(C(=O)Nc3ccccc3Br)c(N)c2c(C)c1C | 2.01 µM
38 | Cc1ccc(N=Cc2sc(O)c3ccccc23)c(C)c1 | > 50 µM (inactive)
39 | CC(C)(C)c1ccc(C(=O)Nc2ccc(Cn3cncn3)cc2)cc1 | 28 µM
40 | Cc1cc2nc(-c3ccc(SCc4ccccn4)nc3)[nH]c2cc1C | 12.5 µM
41 | CC(C)=CCC/C(C)=C/Cc1c(O)cc2c(c1O)C(=O)OC2 | 2.33 µM
42 | Cc1ccc(O)c(-c2cc(C(=O)Nc3ccccc3Cl)[nH]n2)c1 | 17.1 µM
43 | COc1ccc(/C=C/c2ccnc3nc(-n4cccc4)nn23)cc1 | > 50 µM (inactive)
44 | Cn1nccc1C(=O)N1CCCCC1c1ncc(Cc2ccc(Cl)cc2)o1 (stereo not drawn) | > 50 µM (inactive)
45 | COc1ccc(-c2cc(C(F)F)n3ncc(C(=O)Nc4ccc5c(c4)OCCO5)c3n2)cc1 | > 50 µM (inactive)
46 | CC(C)(C)n1ncc2c(=O)n(Cc3cccc([N+](=O)[O-])c3)cnc21 | 6.69 µM
47 | CC1CCN(S(=O)(=O)c2ccc3[nH]cc(C(=O)NCc4ccco4)c(=O)c3c2)CC1 | > 50 µM (inactive)
48 | O=C(NCc1cccnc1)C1CCN(c2cnc(N3CCCCCC3)nc2)CC1 | 0.0687 µM

More lines, now with the values ahead:

Row | IC50 | SMILES
49 | 9.05 µM | O=C(Cn1cnc2c(cnn2-c2ccc(Cl)cc2)c1=O)NCc1ccccc1Cl
50 | > 50 µM (inactive) | CC(C(=O)Nc1ccccc1)n1cnc2nc(N3CCCCC3)ncc2c1=O (stereo not drawn)
51 | > 50 µM (inactive) | COc1ccc(-n2ccc(=O)c(-c3nc(-c4ccccc4F)no3)n2)cc1OC
52 | > 50 µM (inactive) | O=C(CN1C(=O)COc2ccc(Cl)cc21)Nc1cccc2ncccc12
53 | 8.2 µM | COc1ccc(-c2ocnc2C(=O)NCc2ccc(F)cc2)cc1
54 | 31.2 µM | NS(=O)(=O)c1cc(C(=O)OCC(=O)NC2CCCc3ccccc32)ccc1Cl (stereo not drawn)
55 | 1.84 µM | COc1cc2c(cc1OC)-c1cc(Nc3ccc(Br)cc3)nc(=O)n1CC2
56 | 6.27 µM | O=C(NC1CCN(Cc2ccccc2)CC1)c1[nH]nc2c1CCc1ccccc1-2
57 | 8.65 µM | COc1ccc(OC)c(NC(=O)CSc2nc(C)nc3c2oc2ccccc23)c1
58 | 15.1 µM | O=C(NC1CCN(c2nc(-c3cccnc3)nc3ccccc23)CC1)c1cccnc1
59 | > 50 µM (inactive) | COc1ccccc1-c1ccc(CN2[C@@H](c3ccccc3)C[C@@H]3NC(=O)CCC[C@H]32)cc1
60 | 2.4 µM | CC1(C)Cc2c(sc3nc(Cc4ccccc4)nc(SCC(=O)Nc4ccccc4)c23)CO1
61 | 25.1 µM | Cc1noc(-c2cc(=O)n(CC(=O)NCc3ccccc3)c3ccccc23)n1
62 | > 50 µM (inactive) | COc1ccc(C(=O)CSc2ccc3nnc(CCNC(=O)c4ccc(OC)cc4)n3n2)cc1
63 | 2.07 µM | COC(=O)c1ccc(Cn2cnc3ccc(Br)cc3c2=O)o1
64 | 2.57 µM | CSc1cccc(NC(=O)COc2cccc3ccccc23)c1
65 | 4.73 µM | Cc1cccc(NC(=O)Nc2ccc(C)n(CC(=O)Nc3ccccc3)c2=O)c1
66 | 23 µM | COc1ccc(CN=C2NS(=O)(=O)C(c3ccc(F)cc3)=C2C)cc1OC
67 | 15.9 µM | Cc1nn(-c2ccccc2)c(C)c1C(=O)OCC(=O)Nc1cccc(C#N)c1
68 | > 50 µM (inactive) | COCCN(C1CCN(CCc2ccc(Cl)cc2)CC1)S(=O)(=O)c1cccc2cccnc12
69 | > 50 µM (inactive) | Cc1noc(NS(=O)(=O)c2ccc(NC(=O)CSc3ccc4ccccc4c3)cc2)c1C
70 | 9.31 µM | O=C(CSc1ccc2nnc(-c3ccccc3)n2n1)N1CCCc2ccccc21
71 | 20.3 µM | O=C(CSc1nnc(Cn2cnc3ccccc32)o1)Nc1ccc([N+](=O)[O-])cc1
72 | 36.6 µM | N#Cc1ccccc1Cn1c(=O)n(CCCCC(=O)NCc2ccco2)c(=O)c2ccccc21
73 | 2.36 µM | Cc1cc(NC(=O)Cn2c(=O)n(CCCCC(=O)NCc3ccco3)c(=O)c3ccccc32)ccc1Br

Row | IC50 | SMILES
74 | 13.6 µM | CCN(CCCNC(=O)c1ccc(Cn2c(=O)[nH]c3ccccc3c2=O)cc1)c1ccccc1
75 | > 50 µM (inactive) | CCN1C[C@@H]2C[C@]2(c2ccccc2OC)C(=O)c2ncccc21
76 | 41.6 µM | CCOc1ccccc1C(=O)Nc1ccc2c(c1)Sc1ncccc1C(=O)N2C
77 | 21.6 µM | Cc1cccc(OCCn2c(CCNC(=O)C3CCCCC3)nc3ccccc32)c1
78 | > 50 µM (inactive) | Cc1cnc2nc3c(cc2c1)CN(CCc1ccc(Cl)cc1)CC3
79 | 48.7 µM | CC1(C(=O)NCc2ccccc2)Cn2c(cc3ccccc32)C(=O)N1Cc1ccccc1 (stereo not drawn)
80 | 33.8 µM | CCn1c(SCC(=O)N2c3ccccc3CC2C)nnc1-c1ccc2c(c1)OCCO2 (stereo not drawn)
81 | < 0.05 µM | Cc1cccc(C(=O)Nc2ccc3c(c2)nc(CSc2nccc(C)n2)n3C)c1
82 | 20.7 µM | Cc1ccccc1OCCSc1nc2ccccc2n1CC(=O)NC1CC1
83 | 5.97 µM | O=C(c1nnn(Cc2ccc(Cl)cc2)c1-n1cccc1)N1CCCC1
84 | 27.3 µM | CC(=O)c1ccc(NC(=O)CC2C(=O)Nc3nc4ccccc4n32)cc1 (stereo not drawn)
85 | > 5 µM (inactive) | CSc1ccc(CNCc2c(C(=O)O)n(Cc3ccccc3)c3cc(C)ccc23)cc1
86 | 12.5 µM | COc1ccc(C(=O)Nc2nc3n(n2)C(c2ccccc2)CC(=O)N3)cc1 (stereo not drawn)
87 | 16.6 µM | Cc1ccc(-n2cc(C(=O)NCc3cccnc3)nn2)cc1C
88 | > 50 µM (inactive) | O=c1c(NCCCN2CCCC2)nc2ccncc2n1Cc1ccccc1
89 | 28.8 µM | O=C(NCC(c1cccnc1)N1CCc2ccccc2C1)C(=O)Nc1ccc2c(c1)OCO2 (stereo not drawn)
90 | 21.7 µM | COc1ccc(NC(=O)Nc2cccc(-c3nnc(-c4ccccc4)o3)c2)cc1OC
91 | 16.3 µM | CSc1ccc(CNC(=O)CC2CCN(S(=O)(=O)c3ccc(C)cc3)CC2)cc1
92 | 17.4 µM | Cc1noc(-c2cccc(=O)n2CC(=O)Nc2ccc(C)c(C)c2)n1
93 | 8.44 µM | COc1ccc(OC)c(-n2c(SCC(=O)N3CCc4ccccc43)nnc2-c2cccc(S(=O)(=O)N(C)C)c2)c1
94 | > 50 µM (inactive) | COc1ccc(CCNC(=O)[C@H](CCSC)NC(=O)N2CCn3c2nc2ccccc23)cc1OC
95 | 24.8 µM | COc1ccccc1NC(=O)CNC(=O)c1nn(-c2ccc(OC)c(OC)c2)c(=O)c2ccccc12
96 | 18.5 µM | CC1CCCN(CCCNC(=O)c2ccc(N3CCc4ccccc43)s2)C1 (stereo not drawn)
97 | 42.4 µM | COc1ccccc1CNC(=O)Nc1cccc2ccccc12
98 | > 50 µM (inactive) | CN1CCN(C(=O)c2cc(-c3ccn(-c4ccccc4)n3)n3ccccc23)CC1
